In PubChem BioAssay AID488803 (Sanford-Burnham Center for Chemical Genomics, 2010):
Active and inactive are the calls of the source.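 How the source made its calls: active means mean IC50 below 10 µM; inactive means the rest.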

Molecular target: Apelin receptor (Homo sapiens) (UniProt P35414)
Test: apelin receptor inhibitor analogs – cell-based, luminescence, set 2, SAR follow-up (AID 488803)
Details: CHO-K1 APJ PathHunter beta-arrestin, antagonist

Chain of Apelin receptor (Homo sapiens) (P35414 whole entry, looked up): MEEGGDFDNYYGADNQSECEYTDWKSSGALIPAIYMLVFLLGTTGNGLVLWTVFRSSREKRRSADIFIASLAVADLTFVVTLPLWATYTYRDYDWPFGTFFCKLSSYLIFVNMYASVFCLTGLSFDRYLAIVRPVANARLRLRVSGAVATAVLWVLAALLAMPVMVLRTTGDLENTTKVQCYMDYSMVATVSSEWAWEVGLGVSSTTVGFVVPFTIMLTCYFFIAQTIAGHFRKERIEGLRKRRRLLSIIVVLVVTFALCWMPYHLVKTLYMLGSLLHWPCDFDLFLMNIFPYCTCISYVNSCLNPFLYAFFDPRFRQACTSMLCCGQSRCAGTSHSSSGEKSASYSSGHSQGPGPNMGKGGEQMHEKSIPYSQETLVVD

O=C(Oc1coc(CSc2ncccn2)cc1=O)c1ccc(-c2ccccc2)cc1
IC50: > 79 µM (inactive)

CC(=O)Oc1cc2c(cc1Cl)C(c1ccccc1Cl)CC1(CC(C)(C)NC(=S)N1)O2 (configuration not stated)
IC50: > 79 µM (inactive)

Cc1cccc(C2CC3(CC(C)(C)NC(=S)N3)Oc3cc(O)c(Cl)cc32)c1 (configuration not stated)
IC50: inactive

Cc1c(C(=O)Oc2coc(CSc3ncccn3)cc2=O)cccc1[N+](=O)[O-]
IC50: inactive

CSc1cccc(N=C2C(=O)Nc3ccccc32)c1
IC50: 9.84 µM

Cc1ccnc(SCc2cc(=O)c(OC(=O)c3ccc(C)c([N+](=O)[O-])c3)co2)n1
IC50: 4.7 µM

O=C(Oc1coc(CSc2ncccn2)cc1=O)c1ccc(F)cc1
IC50: > 79 µM (inactive)

Cc1c(O)ccc2c1OC1(CC2c2ccccc2Cl)CC(C)(C)NC(=O)N1 (configuration not stated)
IC50: > 79 µM (inactive)

C=CCOc1ccc(CSc2nc(C)cc(C)n2)cc1Cl
IC50: > 79 µM (inactive)

Cc1ccnc(SCc2cc(=O)c(OC(=O)c3ccc([N+](=O)[O-])cc3)co2)n1
IC50: 4.32 µM

C=CCOc1ccc(CSc2nccc(C)n2)cc1
IC50: > 79 µM (inactive)

C=CCSC1=NC2(CC(c3ccc(C)cc3)c3c(C)cc(OC(C)=O)cc3O2)CC(C)(C)N1 (configuration not stated)
IC50: inactive

Cc1ccc(C(=O)Oc2coc(CSc3nccc(C)n3)cc2=O)cc1
IC50: > 79 µM (inactive)

Cc1ccc(NCC(=O)c2ccccc2)cc1
IC50: 2.53 µM

CN(C)S(=O)(=O)c1ccc(C(=O)Oc2coc(CSc3ncccn3)cc2=O)cc1
IC50: > 79 µM (inactive)

Cc1ccnc(SCc2cccc(O)c2)n1
IC50: > 79 µM (inactive)

C=CCSC1=NC2(CC(c3ccccc3)c3c(C)cc(O)cc3O2)CC(C)(C)N1 (configuration not stated)
IC50: > 79 µM (inactive)

COc1ccccc1NC(=O)CN1C(=O)C(=O)c2ccccc21
IC50: inactive

N#Cc1ccc(C(=O)Oc2coc(CSc3ncccn3)cc2=O)cc1
IC50: 6.59 µM

Cc1cccc(C2CC3(CC(C)(C)NC(=O)N3)Oc3cc(O)c(Cl)cc32)c1 (configuration not stated)
IC50: > 79 µM (inactive)

O=c1cc(CCl)occ1O
IC50: > 79 µM (inactive)

COc1ccc(C(=O)Oc2coc(CSc3ncccn3)cc2=O)cc1
IC50: > 79 µM (inactive)

C=CCOc1cccc(CSc2ncccn2)c1
IC50: > 79 µM (inactive)

C=CCOc1cccc(CSc2nccc(C)n2)c1
IC50: > 79 µM (inactive)

COc1ccc(C2CC3(CC(C)(C)NC(=S)N3)Oc3cc(O)cc(C)c32)cc1 (configuration not stated)
IC50: inactive

Cc1ccnc(S(=O)(=O)Cc2cc(=O)c(OC(=O)c3ccc(Cl)c([N+](=O)[O-])c3)co2)n1
IC50: 3.21 µM

Cc1ccnc(SCc2cc(=O)c(OC(=O)c3ccccc3C)co2)n1
IC50: > 79 µM (inactive)

COc1cc(CSc2nc(C)cc(C)n2)ccc1O
IC50: > 79 µM (inactive)

CC1(C)CC2(CC(c3ccccc3Cl)c3cc(Cl)c(OC(=O)C4CC4)cc3O2)NC(=S)N1 (configuration not stated)
IC50: inactive

CCCCOc1ccc(C(=O)Oc2coc(CSc3ncccn3)cc2=O)cc1
IC50: > 79 µM (inactive)

O=C(Oc1coc(CSc2ncccn2)cc1=O)c1ccc(C(F)(F)F)cc1
IC50: inactive

COc1cccc(C(=O)Oc2coc(CSc3nccc(C)n3)cc2=O)c1
IC50: > 79 µM (inactive)

Cc1ccc(N=C2C(=O)Nc3ccccc32)cc1
IC50: inactive

O=C(COC(=O)c1cccnc1)c1ccc(Cl)cc1
IC50: > 79 µM (inactive)

Cc1cc(C)nc(SCc2cc(=O)c(OC(=O)c3cc(Cl)ccc3[N+](=O)[O-])co2)n1
IC50: > 79 µM (inactive)

Cc1ccnc(SCc2cc(=O)c(OC(=O)c3ccccc3Cl)co2)n1
IC50: inactive

Cc1cc(C)nc(SCc2cc(=O)c(OC(=O)c3ccc(S(=O)(=O)N(C)C)cc3)co2)n1
IC50: > 79 µM (inactive)

O=C(Oc1coc(CSc2ncccn2)cc1=O)c1cc(Cl)ccc1[N+](=O)[O-]
IC50: > 79 µM (inactive)

Cc1ccc(C)c(NCC(O)c2ccc(Cl)cc2)c1 (configuration not stated)
IC50: > 79 µM (inactive)

CC(C)Oc1ccc(C(=O)Oc2coc(CSc3ncccn3)cc2=O)cc1
IC50: > 79 µM (inactive)

Cc1cc(C)nc(SCc2cc(=O)c(OC(=O)c3cc([N+](=O)[O-])ccc3Cl)co2)n1
IC50: inactive

Cc1ccccc1C1CC2(CC(C)(C)NC(=S)N2)Oc2cc(O)c(Cl)cc21 (configuration not stated)
IC50: inactive

Cc1ccc(C(=O)Oc2coc(CSc3ncccn3)cc2=O)cc1[N+](=O)[O-]
IC50: 7.25 µM

CC(C)(C)c1ccc(C(=O)Oc2coc(CSc3ncccn3)cc2=O)cc1
IC50: > 79 µM (inactive)

Cc1ccnc(SCc2cc(=O)c(OCc3ccccc3)co2)n1
IC50: > 79 µM (inactive)

COc1ccccc1NCC(=O)c1ccc(Cl)cc1
IC50: 1.7 µM

Cc1ccc(NCC(O)c2ccccc2)cc1 (configuration not stated)
IC50: > 79 µM (inactive)

COc1ccc(C(=O)Oc2coc(CSc3nccc(C)n3)cc2=O)cc1
IC50: > 79 µM (inactive)

Cc1ccnc(SCc2cc(=O)c(OC(=O)c3cc([N+](=O)[O-])ccc3Cl)co2)n1
IC50: inactive

Cc1ccnc(SCc2cc(=O)c(OC(=O)c3cccs3)co2)n1
IC50: > 79 µM (inactive)

Cc1ccnc(SCc2cc(=O)c(OC(=O)c3cccc([N+](=O)[O-])c3)co2)n1
IC50: inactive

COc1ccc(NC2C(=O)Nc3ccccc32)cc1 (configuration not stated)
IC50: > 79 µM (inactive)

CC1(C)CC2(CC(c3ccccc3Cl)c3ccc(O)cc3O2)NC(=S)N1 (configuration not stated)
IC50: 6.88 µM

O=c1cc(CSc2ncccn2)occ1O
IC50: > 79 µM (inactive)

C=CCOc1cccc(CSc2nc(C)cc(C)n2)c1
IC50: > 79 µM (inactive)

O=C(Oc1coc(CSc2ncccn2)cc1=O)c1ccc(Cl)cc1
IC50: inactive

Cc1cc(C)nc(SCc2cc(=O)c(OC(=O)c3cccc([N+](=O)[O-])c3C)co2)n1
IC50: > 79 µM (inactive)

O=C(Oc1coc(CSc2ncccn2)cc1=O)c1ccccc1
IC50: > 79 µM (inactive)

Cc1cc(C)nc(SCc2cc(=O)c(OC(=O)c3ccc(C)c([N+](=O)[O-])c3)co2)n1
IC50: inactive

Cc1cc(C)nc(SCc2ccc(OC(=O)c3ccccc3)c(Cl)c2)n1
IC50: > 79 µM (inactive)

CC1(C)CC2(CC(c3ccc(Cl)cc3)c3ccc(O)cc3O2)NC(=S)N1 (configuration not stated)
IC50: inactive

Cc1ccnc(SCc2cc(=O)c(OC(=O)c3ccc(OC(F)(F)F)cc3)co2)n1
IC50: > 79 µM (inactive)

COc1cc(C(=O)Oc2coc(CSc3ncccn3)cc2=O)c([N+](=O)[O-])cc1OC
IC50: > 79 µM (inactive)

O=C(Oc1coc(CSc2ncccn2)cc1=O)c1ccc(S(=O)(=O)N2CCCC2)cc1
IC50: > 79 µM (inactive)

O=C(Oc1coc(CSc2ncccn2)cc1=O)c1ccc(S(=O)(=O)N2CCCCC2)cc1
IC50: > 79 µM (inactive)

Cc1ccnc(SCc2cc(=O)c(O)co2)n1
IC50: > 79 µM (inactive)

CC(C)OC(=O)CN1C(=O)C(=O)c2ccccc21
IC50: > 79 µM (inactive)

O=C(O)CN1C(=O)C(=O)c2ccccc21
IC50: > 79 µM (inactive)

Cc1ccnc(SCc2cc(=O)c(OC(=O)c3ccco3)co2)n1
IC50: > 79 µM (inactive)

O=C(Oc1coc(CSc2ncccn2)cc1=O)c1cccc([N+](=O)[O-])c1
IC50: inactive

O=C(Oc1coc(CSc2ncccn2)cc1=O)c1ccc(Br)cc1
IC50: inactive

O=C(Oc1coc(CSc2ncccn2)cc1=O)c1ccc(Cl)c([N+](=O)[O-])c1
IC50: 6.2 µM

COc1ccccc1NCC(O)c1ccc(Cl)cc1 (configuration not stated)
IC50: > 79 µM (inactive)

Cc1ccnc(SCc2cc(=O)c(OC(=O)c3ccc(Cl)cc3)co2)n1
IC50: > 79 µM (inactive)

O=C(Oc1coc(CSc2ccccc2)cc1=O)c1ccc(Cl)c([N+](=O)[O-])c1
IC50: 9.61 µM

Cc1ccnc(SCc2cc(=O)c(OC(=O)c3ccc(S(=O)(=O)N4CCCC4)cc3)co2)n1
IC50: > 79 µM (inactive)

Cc1ccccc1NCC(=O)c1ccc(Cl)cc1
IC50: 1.42 µM

Cc1cc(C)nc(SCc2ccc(O)c(Cl)c2)n1
IC50: > 79 µM (inactive)

O=c1cc(CSc2ccccc2)occ1O
IC50: > 79 µM (inactive)

Cc1ccc(C(=O)Oc2coc(CSc3ncccn3)cc2=O)cc1C
IC50: > 79 µM (inactive)

O=C(Oc1coc(CSc2ncccn2)cc1=O)c1ccc(S(=O)(=O)N2CCOCC2)cc1
IC50: > 79 µM (inactive)

C=CCOc1ccc(COc2ccccc2)cc1
IC50: > 79 µM (inactive)

Cc1cc(C)nc(SCc2cc(=O)c(OC(=O)c3ccc(Cl)c([N+](=O)[O-])c3)co2)n1
IC50: 5.45 µM

C=CCOc1ccc(CSc2nc(C)cc(C)n2)cc1OC
IC50: > 79 µM (inactive)

Oc1cccc(CSc2ncccn2)c1
IC50: > 79 µM (inactive)

Cc1ccc(C(=O)Oc2coc(CSc3ncccn3)cc2=O)cc1
IC50: > 79 µM (inactive)

CC1(C)CC2(CC(c3ccccc3Cl)c3ccc(O)cc3O2)NC(=O)N1 (configuration not stated)
IC50: > 79 µM (inactive)

Cc1ccnc(SCc2cc(=O)c(OC(=O)c3ccc(F)cc3)co2)n1
IC50: > 79 µM (inactive)

Cc1cc(C)nc(SCc2cccc(O)c2)n1
IC50: > 79 µM (inactive)

Cc1ccnc(SCc2cc(=O)c(OC(=O)c3ccc(C(F)(F)F)cc3)co2)n1
IC50: inactive

CCN(CC)S(=O)(=O)c1ccc(C(=O)Oc2coc(CSc3ncccn3)cc2=O)cc1
IC50: > 79 µM (inactive)

Cc1ccnc(SCc2cc(=O)c(OC(=O)c3ccc(C#N)cc3)co2)n1
IC50: 8.51 µM

O=C(Oc1coc(CSc2ncccn2)cc1=O)c1cc([N+](=O)[O-])ccc1Cl
IC50: inactive

Cc1ccnc(SCc2cc(=O)c(OC(=O)c3cccc(Cl)c3)co2)n1
IC50: > 79 µM (inactive)

Cc1cccc(C2CC3(CC(C)(C)NC(=S)N3)Oc3cc(O)cc(C)c32)c1 (configuration not stated)
IC50: inactive

Cc1c(O)ccc2c1OC1(CC2c2ccccc2Cl)CC(C)(C)NC(=S)N1 (configuration not stated)
IC50: > 79 µM (inactive)

CCOc1ccc(C(=O)Oc2coc(CSc3ncccn3)cc2=O)cc1
IC50: > 79 µM (inactive)

Cc1ccnc(SCc2cc(=O)c(OC(=O)c3cc(Cl)ccc3[N+](=O)[O-])co2)n1
IC50: inactive

CC1(C)CC2(CC(c3ccccc3Cl)c3ccc(OC(=O)c4ccccc4)cc3O2)NC(=S)N1 (configuration not stated)
IC50: inactive

CSC1=NC2(CC(c3ccccc3)c3cc(Cl)c(O)cc3O2)CC(C)(C)N1 (configuration not stated)
IC50: > 79 µM (inactive)

Cc1cccc(C(=O)Oc2coc(CSc3nccc(C)n3)cc2=O)c1
IC50: > 79 µM (inactive)

COc1ccc(C2CC3(CC(C)(C)NC(=S)N3)Oc3cc(OC(C)=O)cc(C)c32)cc1 (configuration not stated)
IC50: inactive
